Data published in article PMC12298629, “New Derivatives of Caracasine Acid with Anti-Leukemic Activity and Limited Effectiveness in Spheroid Cultures” (Pharmaceuticals, 2025).

What was measured:
[1] = system: different cell lines (CCRF-CEM, K562, Raji, Ramos, HCT116, HCT116 p53KO, A549, U2OS); test: Peroxide formation assessment using DCFDA; assay type: cell-based, human; details: compounds at 5-fold the IC50; percentage increase versus negative control
Procedure: The assessment of peroxides was performed as described by Figuero et al. with some modifications. Briefly, the different cell lines, at 10,000 cells per well, were incubated in a sterile 96-well glass-bottom plate from Celvis (München, Germany), which features a black polystyrene frame with high-quality #1.5 glass, suitable for fluorescent assessment. After one hour of incubation in the incubator at 37 °C, 5% CO2, 50 µL of 20 µM 2′,7′-dichlorofluorescein diacetate (DCFDA), Thermo Fisher, was added. The cells were incubated for an additional 30 min to allow for the internalization of the fluorophore. Then, 50 µL of the compounds diluted in media at a concentration 5-fold the IC50 calculated in cytotoxic studies, were added to each well, and the plates were read on an Enspire (PerkinElmer). Fluorescence was measured using the following parameters: excitation at 495 nm and emission at 530 nm. The temperature was maintained at 37 °C, and the readings were taken in bottom mode with three readings per well. Wells containing only RPMI, with 10% FCS, were included as background negative controls. Each experiment was repeated three times on separate occasions (n = 3). Cisplatin was used as a positive control, and the values were calculated based on cells without stimuli (negative control for each cell line). Hydrogen peroxide was used as a possible early marker for apoptosis as described by Miyazato et al..

HCT116 par = test: Cytotoxic MTS assay, HCT116 parental 2D; assay type: cell-based; details: HCT-116, human tumors 2D, 72 h, median of five assays
Source text: (§1) The cancer cell lines used in the cytotoxic assays were acquired from the American Tissue Culture Collection (ATCC) (Manassas, VA, USA) and maintained as described previously. The MRC-5 and BJ human fibroblasts were used as non-tumoral control cells. The (MRC-5 LD and BJ LD) are also human fibroblast cell lines resistant to doxorubicin. […] The Raji and Ramos cell lines correspond to B-cell leukemia. Other cells, such as U2OS, represent a child osteosarcoma, while HCT116 is a colorectal tumor cell line. (HCT116p53^−/−, Horizon Discovery Ltd., Cambridge, UK) is a similar cell line with its p53 gene knocked down, serving as a model of human cancer frequently associated with a poor prognosis. The cells were maintained in Nunc/corning 80 cm^2 plastic tissue culture flasks and cultured in a cell culture medium according to ATCC or Horizon recommendations (McCoy, DMEM/RPMI 1640 with 5 g/L glucose, 2 mM glutamine, 100 U/mL penicillin, […] streptomycin, 10% fetal calf serum, and NaHCO3). The compounds were freshly dissolved in DMSO. The final concentration of DMSO was 0.01% in the cell culture.
(§2) The in vitro cytotoxicity of compounds (1–7) was assessed using the standard 3-(4,5-dimethyl-thiazol-2yl)-5-(3-carboxymethoxyphenyl)-2-(sulfophenyl)-2H-tetrazolium (MTS). The assay was performed at the Institute of Molecular and Translational Medicine using a robotic platform (High-ResBiosolutions, Beverly, MA, USA). Cell suspensions were prepared and diluted according to the specific cell type and the expected target cell density (25,000–35,000 cells/mL, based on cell growth characteristics). An automatic pipettor (30 μL) was used to add cells into 384-well microtiter plates. All tested compounds were dissolved in 100% DMSO, and four-fold dilutions of the intended test concentrations were added in 0.15 μL aliquots at time zero to the microtiter plate wells by the echo acoustic non-contact liquid handler Echo550 (Labcyte, San Jose, CA, USA). The assays were accomplished in technical duplicates and at least three biological replicates. The cells were incubated with the tested compound for 72 h at 37 °C in a 5% CO2 atmosphere with 100% humidity. At the end of the incubation period, cells were assayed using the MTS test. Aliquots (5 μL) of the MTS stock solution were pipetted into each well and incubated for 1–4 h. After this incubation period, the optical density (OD) was measured at 490 nm using an Envision reader (PerkinElmer, Waltham, MA, USA). Tumor cell survival (TCS) was calculated using the following equation: TCS = (OD drug-exposed well/mean OD control wells) × 100%. The IC50 value, representing the concentration of the compound lethal to 50% of the tumor cells, was calculated from the corresponding dose-response curves using Dotmatics software (Updated version 2022, London, UK). After three days of incubation on the cancer cell lines and normal fibroblasts, the […] (IC50) were obtained. Five assays were performed for each cell line. The standard error of the assays was lower than 10%, as assessed by the triplicate assays.

MRC-5 LD = test: Cytotoxic MTS assay, MRC-5 LD fibroblasts (doxorubicin-resistant); assay type: cell-based; details: MRC5, doxorubicin-resistant human fibroblasts, 72 h, median of five assays
Source text: as §1, §2

caspase 3 = test: Caspase 3 activity in lysed HCT116 cells from 2D and spheroids; assay type: cell-based, human; details: 12 h; for Caspase 3 activity, 2D culture: HCT116 parental, 25 µM; for Caspase 3 activity, spheroid culture: HCT116 parental spheroids, 25 µM (cisplatin 15 μM)
Procedure: The assay was designed to evaluate the impact of various compounds on caspase activity using a standardized quantity of cell protein lysates after 12 h of incubation. The parental line HCT116 served as the basis for these experiments. Three distinct caspases were examined employing the fluorescence assay kits from Calbiochem (San Diego, CA, USA), specifically a fluorometric caspase-8 assay kit and a fluorimetric caspase-3 assay kit. Additionally, the fluorometric kit from Abcam was utilized to assess caspase-9 activity. Due to the variations in protocols for each caspase, separate plates were prepared for each assay, encompassing both two-dimensional (2D) cell cultures and spheroids. The compound concentrations were established at 25 µM, and assays were conducted in quintuplicate following a 12-h incubation period. The cells were harvested from the plates using the standard trypsin-EDTA solution (Merck Sigma Aldrich, Saint Louis, MO, USA), washed, and counted before lysis, as described in each kit. Cell processing adhered to the guidelines provided by the respective companies, and protein concentration was calculated and standardized using the standard BCA assay. Fluorescent readings were captured using the Enspire apparatus (Perkin-Elmer, MA, USA). Positive controls utilized included staurosporine at a concentration of 5 μM and cisplatin at 15 μM. The kits provided their own standards; however, to normalize all the readings between cultures, types, and treatments, the results were expressed as a percentage relative to the positive control, staurosporine, in 2D culture. […] A total of three separate assays were conducted for each caspase.

Row | SMILES | Peroxide formation (DCFDA) [1] | IC50 (HCT116 par) [µM] | IC50 (MRC-5 LD) [µM] | Caspase 3 activity, 2D culture (caspase 3) | Caspase 3 activity, spheroid culture (caspase 3)
1 | C=C(C)C1CCC23CC(CCC2C1(C)CCC(=O)O)C(C)C3=O (single isomer, unassigned; ent-3) [Compound 5, Ent-3,4-Seco-15-Oxo-Kaur-4(19)-en-3-Oic Acid] | did not induce peroxide formation | > 50 | > 50 | did not induce caspase activity | –
2 | C=C(C)C1CCC23CC(CCC2C1(C)CCC(=O)OC(C)=O)C(C)C3=O (single isomer, unassigned; ent-3) [Compound 6, Ent-3,4-Seco-15-Oxo-Kaur-4(19)-en-Acetic Anhydride] | did not induce peroxide formation | > 50 | > 50 | did not induce caspase activity | –
3 | C=C1C(=O)C23CCC(C(=C)C)C(C)(CCC(=O)OC)C2CCC1C3 (stereo not drawn) [Compound 2, Caracasine] | least active | 2.02 | 6.36 | significant changes | absence of caspase activity
4 | C=C1C(=O)C23CCC(C(=C)C)C(C)(CCC(=O)OC(C)=O)C2CCC1C3 (stereo not drawn) [Compound 7, Caracasine-Acetic Anhydride] | most active | 2.12 | 5.53 | significant changes | absence of caspase activity
